Assay results published in US20230331690A1, “THC DERIVATIVES, ORAL DOSAGE FORMS COMPRISING SAME, USES THEREOF FOR TREATING DISEASES AND DISORDERS AND SYNTHESIS THEREOF” (BAR-ILAN UNIVERSITY, priority 2020, published 2023).
Where “and” joins values, the source holds several entries; their conditions need not be identical. Equal values may be shown once.

Assays:
mice = experiment: Hot plate assay, withdrawal reflex latency (WRL); type: in vivo; conditions: for Hot plate Time: per animal
hind paw of mice = experiment: Electronic Von-Frey mechanical sensitivity (withdrawal thresholds) after Paclitaxel-induced neuropathic pain; type: in vivo; conditions: for Withdrawal test, test 1 / Withdrawal test, test 4 / Withdrawal test, test 5 / Withdrawal test, test 2 / Withdrawal test, test 3 / Withdrawal test, test 6: per animal; for Withdrawal test, All group average: 8 mice; for Withdrawal test, Average: average per animal; for Withdrawal test, Change from b.l.: group average vs baseline; for Withdrawal test, test 6: additional test
Protocol: Mechanical sensitivity was evaluated by measuring the changes in tactile sensitivity in the hind paw of mice, using an Electronic Von-Frey apparatus (EVF). Withdrawal thresholds were measured, using the EVF apparatus, first at baseline (time=0) and then following drug, in a few periods after administration, by applying an accurate force on specific areas of the skin and measuring the needed force for the mouse to lift its paw.
Paclitaxel was utilized for the stimulation of a chemotherapy-induced neuropathic pain. Paclitaxel is anti-cancer chemotherapy drug classified as a “plant alkaloid” and an “antimicrotubule agent”.
Mice were divided into three groups of 8 mice each, as follows: • (a) Group no. 1—Morphine as positive control; • (b) Group no. […] 3—synthetic THC derivative 9-Desmethyl THC.
A portion of Paclitaxel was administered to each mouse by i.p. injection, on days 1, 3, 5 and 7 from the beginning of the experiment. At day 8, withdrawal thresholds were measured first at baseline (time=0), thereafter each mouse received a single portion of a drug substance, at 5 mg/Kg body weight concentration, by oral gavage and measurements took place.
The first checking point was 1 hour after administration of each drug. For every mouse, its threshold for the pain perception in which it removes its hind paw after the stabbing of the Von-Frey hair has been checked. Needed force (in gram force units) was measured each time and was recorded for every checking. This test was repeated 5 times for each mouse consecutively.
This procedure was repeated for all the three groups. The next checking point was 3 hours after administration, where the last withdrawal thresholds measurements were performed on the next morning, on day 9, which was 24 hours after administration.
Morphine was utilized as a positive control where group no. 1 mice received morphine (dissolved in a saline solution (0.9%) and injected subcutaneously) as an analgesic agent, prior to the mechanical sensitivity tests.
The tests described in this example are complicated and depend on numerous factors. Accordingly, results above 10.0 gram force (marked with an asterisk) were not included in the evaluation of the experimental data. In cases of exceptional results, an additional test was performed mouse (test 6) in order to assure the exceptional result.

[1] = t = 1 h after 5 mg/Kg, * values excluded
[2] = t = 3 h after 5 mg/Kg, * values excluded
[3] = t = 24 h after 5 mg/Kg, * values excluded

## CN1CC[C@]23c4c5ccc(O)c4O[C@H]2[C@@H](O)C=C[C@H]3[C@H]1C5 [Morphine, reference compound]
mice; 5 mg/kg oral, t = 0.5 h
  Hot plate Avg. 6 mice: 14.43 s
mice; 5 mg/kg oral, t = 0.5 h, cut-off 30 s
  Hot plate Time: 15.7 s and 13.1 s and 10.5 s and 23.8 s and 12.4 s and 11.1 s
mice; 5 mg/kg oral, t = 3 h
  Hot plate Avg. 6 mice: 14.05 s
  Hot plate Time: 16.8 s and 11.4 s and 20.5 s and 12.6 s and 14.5 s and 8.5 s
mice; 5 mg/kg oral, t = 6 h
  Hot plate Avg. 6 mice: 14.25 s
  Hot plate Time: 12.7 s and 8.0 s and 26.6 s and 19.7 s and 12.0 s and 6.5 s
mice; 5 mg/kg oral, t = 24 h
  Hot plate Avg. 3 mice: 5.8 s
  Hot plate Time: 2.4 s and 9.0 s and 5.9 s
mice; 5 mg/kg, 0.5 h
  average increase in WRL compared to baseline (t=0): 26.9%
mice; 5 mg/kg, 3 h
  change in average WRL compared to t=0 at baseline: +23%
mice; 5 mg/kg, 6 h
  change in average WRL compared to baseline: +25%
mice; 5 mg/kg, 24 h, 3 animals
  average WRL less than baseline: about 50%
Hind paw of mice; t = 1 h after 5 mg/Kg single dose (oral gavage; morphine s.c.), * values >10.0 excluded from evaluation
  Withdrawal test, test 1: 4.4 gram force (2×) and 8.5 gram force and 8.4 gram force and 5.2 gram force and 5.9 gram force and 4.7 gram force and 5.6 gram force
Hind paw of mice; t = 1 h after 5 mg/Kg
  Withdrawal test, All group average: 6.21 gram force
  Withdrawal test, Average: 5.68 gram force (2×) and 7.80 gram force and 7.17 gram force and 6.62 gram force and 6.02 gram force and 5.26 gram force and 5.45 gram force
  Withdrawal test, Change from b.l.: +6.7%
  Withdrawal test, test 4: 9.1 gram force and 8.3 gram force and 7.4 gram force and 6.5 gram force and 5.0 gram force and 4.2 gram force and 5.3 gram force and 4.4 gram force
  Withdrawal test, test 5: 4.2 gram force and 9.8 gram force and 5.7 gram force and 9.0 gram force and 4.9 gram force and 9.2 gram force and 7.5 gram force and 5.8 gram force
Hind paw of mice; t = 1 h after 5 mg/Kg, listed as morphine
  Withdrawal test, Change from b.l.: 6.7%
Hind paw of mice; [1]
  Withdrawal test, test 2: 6.5 gram force and 4.3 gram force and *10.3 gram force and 7.9 gram force and 8.3 gram force and 7.6 gram force and 4.2 gram force and 6.0 gram force
  Withdrawal test, test 3: 4.2 gram force and 8.1 gram force and *10.5 gram force and 4.5 gram force and 4.3 gram force and 4.4 gram force and 4.9 gram force and *10.2 gram force
Hind paw of mice; t = 3 h after 5 mg/Kg
  Withdrawal test, All group average: 5.79 gram force
  Withdrawal test, Average: 6.28 gram force and 6.00 gram force and 4.68 gram force and 5.50 gram force and 5.66 gram force and 5.12 gram force and 6.34 gram force and 5.34 gram force
  Withdrawal test, Change from b.l.: −0.5%
  Withdrawal test, test 2: 5.5 gram force (2×) and 6.8 gram force and 4.3 gram force and 6.1 gram force and 5.9 gram force and 4.4 gram force and 5.3 gram force
  Withdrawal test, test 4: 5.5 gram force and 4.9 gram force and 4.6 gram force and 4.3 gram force and 7.0 gram force and 5.3 gram force and 6.4 gram force and 5.8 gram force
  Withdrawal test, test 5: 6.9 gram force and 8.6 gram force and 5.5 gram force and 5.6 gram force and 4.6 gram force and 5.2 gram force and 6.1 gram force and 5.7 gram force
  Withdrawal test, test 6: 7.0 gram force and 4.5 gram force
Hind paw of mice; t = 3 h after 5 mg/Kg, listed as morphine
  Withdrawal test, Change from b.l.: −0.5%
Hind paw of mice; [2]
  Withdrawal test, test 1: 7.2 gram force and 5.3 gram force (2×) and *11.6 gram force and 6.6 gram force and 5.6 gram force and 6.4 gram force and 5.4 gram force
  Withdrawal test, test 3: 6.3 gram force and 4.4 gram force and 4.3 gram force (2×) and 4.9 gram force and 5.2 gram force and 8.4 gram force and 4.5 gram force
Hind paw of mice; t = 24 h after 5 mg/Kg
  Withdrawal test, All group average: 5.09 gram force
  Withdrawal test, Average: 5.23 gram force and 4.80 gram force and 5.44 gram force and 5.28 gram force and 4.32 gram force and 6.08 gram force and 4.54 gram force and 5.00 gram force
  Withdrawal test, Change from b.l.: −12.5%
  Withdrawal test, test 1: 5.2 gram force (2×) and 4.0 gram force (2×) and 4.3 gram force and 4.1 gram force and 6.9 gram force and 5.4 gram force
  Withdrawal test, test 2: 4.7 gram force (3×) and 5.2 gram force and 5.3 gram force and 5.8 gram force and 6.0 gram force and 4.0 gram force
  Withdrawal test, test 3: 4.5 gram force and 6.5 gram force and 4.1 gram force (2×) and 4.0 gram force and 4.8 gram force and 5.1 gram force and 4.2 gram force
  Withdrawal test, test 6: 6.5 gram force and 4.3 gram force
Hind paw of mice; t = 24 h after 5 mg/Kg, listed as morphine
  Withdrawal test, Change from b.l.: −12.5%
Hind paw of mice; [3]
  Withdrawal test, test 4: *12.9 gram force and 4.0 gram force and 4.1 gram force and 6.7 gram force and 4.7 gram force (2×) and 4.6 gram force and 7.4 gram force
  Withdrawal test, test 5: 6.5 gram force and 4.3 gram force (2×) and 9.4 gram force and 4.6 gram force and 4.1 gram force and 8.0 gram force and 4.0 gram force
